Entries after “also recorded” stand apart in the source; their conditions may differ.
Key:
[1] = dialysis: binding of free [3H]DHP ligand to the fractions; conditions: 5 mg inside bag, 0.2 nM [3H]DHP, 25° C. overnight
Procedure: In order to further determine the specificity of action of a particular fraction (i.e., to insure that the fraction was acting competitively on the dihydropyridine receptor and not simply depleting the free ligand), a determination of the amount of free ligand was done by dialysis as follows.
A […] segment of Spectra-por 7 dialysis tubing (0.46 mL/cm) was washed thoroughly with water to remove EDTA and other chemicals. The molecular weight cut-off of this tubing was 1,000. Dialysis was performed in 16 mm glass tubes placed in a shaker incubator at 25° C. overnight. The volume inside the bag (made from closing the tubing by tying it) was 2.5 mL; the outside volume was 10 mL of 50 mM HEPES buffer, pH 7.0. Experiments were done with the [^3 H]DHP present both inside and outside the bag. The concentration of the [^3 H]DHP ligand used was always 0.2 nM. A control using 5 mg bovine serum albumin (BSA) inside the bag was carried out. […] The brain fractions tested were also 5 mg by weight. Dialysis was carried out in the presence of the cocktail of protease inhibitors described supra present both inside and outside the bag. The experiment was terminated by taking representative aliquots from inside and outside the bag (in triplicate). The cpm were then adjusted for total volume.

[2] = system: dihydropyridine receptors; test: stability of inhibitory activity to boiling and ashing; assay type: physicochemical; conditions: 270° C. for 3 hours
Description: This observed differential activity was further evidence of a specific interaction with the dihydropyridine binding site rather than the non-specific reduction of free ligand concentration.
When this fraction was chromatographed on either a Waters Protein Pak-125 or a TSK-250 gel filtration column using 40% acetonitrile in 0.1% TFA as the mobile phase, the activity (as determined in ligand binding assays described in Example 1c) eluted in a volume less than […] fragment (amino acids 61-63) having a molecular weight of 443.

calcium channel = conditions: known from the art; cited from earlier work

## bovine serum albumin: control in dialysis, 5 mg inside the bag
[1]
  binding of [3H]DHP ligand in dialysis: bind [^3 H]DHP ligand hydrophobically

## [Cl-].[Na+] [NaCl]
[2]
  activity after ashing: maintained activity upon ashing

## COC(=O)C1=C(C)NC(C)=C([N+](=O)[O-])C1c1ccccc1C(F)(F)F (stereo not drawn) [Bay K8644]
Calcium channel
  effect on calcium channel current: increases calcium channel current; also recorded: can produce inhibition depending on the precise membrane potential and channel state
